Where a name gives a salt, the structure may show the parent alone. Read-outs that look alike come from different tables or passages of the source.

The record followed here is patent US20080004302A1, “Novel Compounds” (ASTRAZENECA AB, priority 2006, published 2008).

In test [1] the target is T1, FGFR1 IIIc (Homo sapiens, UniProt P11362).
T1 construct: host or cells: Cos-1
The experiment in a line: Cell based inhibition of transiently expressed FGFR1 IIIc phosphorylation via use of ECHO technology (Cos-1 cells).

Test [2] has as its target T2, FGFR kinase domain (Homo sapiens, UniProt P11362, C488A/C584S).
T2 construct: FGFR kinase domain (amino acids 458-765, C488A, C584S) N-terminally fused to a His6-tag; made in house
The experiment in a line: Kinase assay (ELISA) for inhibition of FGFR activity. It counts as biochemical. The protocol:
To determine inhibition of FGFR activity, kinase assays were conducted using ELISA (Enzyme-Linked Immunosorbent Assay) technology.
Kinase activity assays were performed in 384-well polypropylene plates (Matrix, 4311) with a total volume of 40 μl in each well. Each well was coated with 2 μg of polyEAY substrate (Sigma, P3899) at 4° C. overnight. The plates were then washed once with 100 μl PBS and once with 100 μl 50 mM HEPES (pH 7.4) prior to the addition of the kinase assay reagents. […] Various concentrations of test compounds were each added in 5% (v/v) DMSO to yield a final assay DMSO concentration of 1.25% (v/v). The kinase reactions were incubated at room temperature for 45 minutes and stopped by washing the plate three times with 100 μl PBS plus 0.05% Tween. […] Following this, the plates were then washed repeatedly with 100 μl PBS plus 0.05% Tween to remove all traces of the antibody solution. 40 μl of 50 μg/ml 3,3′,5,5′-Tetramethylbenzidine (Sigma, T2885), 0.05M phosphate-citrate buffer, containing 0.03% sodium perborate was added to each well and the plates incubated at room temperature for twelve minutes. The colour reaction was stopped by the addition of 20 μl 2M H2SO4 and the plates read at 450 nm on a Spectrafluor Plus (Tecan).

Test [3] has as its target T3, human IGF1R (Homo sapiens, UniProt P08069).
T3 construct: expressed in transfected cells; host or cells: R+ cells (R- mouse fibroblasts transfected with human IGF1R)
The experiment in a line: Inhibition of insulin-like growth factor-1 receptor phosphorylation in R+ cells. The class given is cell-based. The note with it: 30 nM IGF1, read-out: IGF cell class.

Test [4] has as its target FGFR1 kinase (Homo sapiens, UniProt P11362). The experiment in a line: Kinase assay (using Caliper technology). It counts as biochemical. The note with it: FGFR1 kinase, Caliper; upper bound of bin; read-out: IC50. The method, boiled down: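 Human FGFR1 kinase activity measured with a 13-mer fluorescently tagged FGFR1-specific peptide substrate; compounds serially diluted in 5% (v/v) DMSO. Reactions ran 1.5 h at room temperature, stopped with EDTA-containing HEPES pH 7.5 buffer. Phosphorylated and unphosphorylated peptide separated by microfluidic mobility shift.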

For test [5], the system named is Erk phosphorylation. In words: Growth factor (bFGF) stimulated Erk phosphorylation in NIH 3T3 cells. Particulars: Mus musculus, NIH3T3, NIH 3T3 cells, 3 ng/ml bFGF.
From the text: These and other assays were used to evaluate the ability of a test compound to inhibit growth factor stimulated cellular signalling in mammalian cell lines. This was achieved by measuring the amount of receptor tyrosine kinase regulated Erk phosphorylation within a cell following compound treatment.
NIH 3T3 (ECACC, 93061524) cells were routinely passaged in DMEM (Gibco BRL, 41966) plus 10% foetal calf serum (FCS), 1% L-glutamine (Gibco BRL, 25030) to a confluence not greater than 80%. To undertake the assay, NIH 3T3's were seeded at 1×10^4 cells/well in DMEM plus 10% foetal calf serum, 1% L-glutamine in 96 well plates (Costar, 3904) and incubated at 37° C. (+5% CO2) in a humidified incubator. Once the cells had fully adhered (typically following 4-5 hours incubation) the media was removed from each well and the cells gently washed with 100μl warm serum free media. 90μl of serum free DMEM plus 1% L-glutamine was then added to each well and the plates were returned to a humidified 37° C. (+5% CO2) incubator. The following day, the plates were dosed with 10[l compound (diluted from 10 mM stock in DMSO using serum free DMEM) and the plates were returned to a humidified 37° C. (+5% CO2) incubator for one hour. NIH 3T3 cells were then stimulated with a final concentration of 3 ng/ml bFGF (Sigma, F029 1) for 20 minutes at 37° C. Following stimulation the cells were fixed by adding formaldehyde (4% v/v final concentration) and incubating at room temperature for 20 minutes. The fixative solution was then removed and the wells were washed twice with 100μl phosphate buffered saline (PBS/A) before permeabilising the cells by the addition of 50 μl/well 0.1% triton/PBS/A for 10 minutes at room temperature. The permeabilisation solution was then removed and the cells washed twice more with 100 μl/well PBS/A before the addition of 50 μl/well anti-phospho p44/42 (Cell Signalling Technology, 9106), diluted 1/500 with PBS/A plus 10% FCS. The anti-phospho p44/42 antibody recognises Erk phosphorylated at threonine 202 and tyrosine 204. […] Finally, the plates were washed three times with 100 μl/well PBS/A, leaving the final wash in the wells before sealing the plates. The plates were read at 350 nm and 488 nm using an Arrayscan (Cellomics).
The target in test [6] is T1, FGFR1 IIIc. In words: Cell based inhibition of transiently expressed FGFR1 IIIc phosphorylation (Cos-1 cells). Particulars: Cos-1 cells, phospho-FGFR1; upper bound of bin; read-out: IC50.
Setting [7] is: Cos-1 cells, phospho-FGFR1, ECHO dosing, upper bound of bin, read-out: IC50.
Setting [8] is: FGFR inhibition tests, ELISA kinase assay, read-out: Activity class.

T3 sequence (P08069 31-1367): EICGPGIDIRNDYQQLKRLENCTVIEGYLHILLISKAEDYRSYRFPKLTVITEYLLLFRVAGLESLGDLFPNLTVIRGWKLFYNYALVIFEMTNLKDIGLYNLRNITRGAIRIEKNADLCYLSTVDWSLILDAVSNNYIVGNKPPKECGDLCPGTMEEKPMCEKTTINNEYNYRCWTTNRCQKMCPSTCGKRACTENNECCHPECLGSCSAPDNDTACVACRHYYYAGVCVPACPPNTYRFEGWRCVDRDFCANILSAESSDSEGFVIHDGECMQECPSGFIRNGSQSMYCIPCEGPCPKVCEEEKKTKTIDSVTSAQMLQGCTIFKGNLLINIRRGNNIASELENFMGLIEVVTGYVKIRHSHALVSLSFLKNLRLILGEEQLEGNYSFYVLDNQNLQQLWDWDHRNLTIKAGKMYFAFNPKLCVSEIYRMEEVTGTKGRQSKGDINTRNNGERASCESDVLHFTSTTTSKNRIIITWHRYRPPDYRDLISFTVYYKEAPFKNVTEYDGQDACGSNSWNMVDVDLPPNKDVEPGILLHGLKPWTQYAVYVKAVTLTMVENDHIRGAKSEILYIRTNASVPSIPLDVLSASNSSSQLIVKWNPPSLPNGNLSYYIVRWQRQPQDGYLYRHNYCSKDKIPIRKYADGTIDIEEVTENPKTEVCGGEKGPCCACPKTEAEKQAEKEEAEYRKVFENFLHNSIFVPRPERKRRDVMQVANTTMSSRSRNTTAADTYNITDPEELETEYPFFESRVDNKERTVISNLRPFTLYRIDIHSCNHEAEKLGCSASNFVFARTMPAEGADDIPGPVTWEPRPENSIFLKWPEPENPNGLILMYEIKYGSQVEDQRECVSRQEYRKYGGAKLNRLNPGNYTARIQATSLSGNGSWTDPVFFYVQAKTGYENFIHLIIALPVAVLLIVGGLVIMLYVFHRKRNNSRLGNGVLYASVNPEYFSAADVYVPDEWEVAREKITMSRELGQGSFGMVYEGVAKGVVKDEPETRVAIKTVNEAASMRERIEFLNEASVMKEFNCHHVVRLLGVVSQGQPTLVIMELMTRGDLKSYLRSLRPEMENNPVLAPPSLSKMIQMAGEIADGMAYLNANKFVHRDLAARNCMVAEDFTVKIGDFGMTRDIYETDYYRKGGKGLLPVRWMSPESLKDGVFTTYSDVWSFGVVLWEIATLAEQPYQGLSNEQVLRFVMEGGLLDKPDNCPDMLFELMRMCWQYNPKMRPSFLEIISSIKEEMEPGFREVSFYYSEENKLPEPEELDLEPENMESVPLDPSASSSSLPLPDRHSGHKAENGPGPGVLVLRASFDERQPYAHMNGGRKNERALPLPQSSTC
T2 sequence (P11362 458-765 C488A/C584S): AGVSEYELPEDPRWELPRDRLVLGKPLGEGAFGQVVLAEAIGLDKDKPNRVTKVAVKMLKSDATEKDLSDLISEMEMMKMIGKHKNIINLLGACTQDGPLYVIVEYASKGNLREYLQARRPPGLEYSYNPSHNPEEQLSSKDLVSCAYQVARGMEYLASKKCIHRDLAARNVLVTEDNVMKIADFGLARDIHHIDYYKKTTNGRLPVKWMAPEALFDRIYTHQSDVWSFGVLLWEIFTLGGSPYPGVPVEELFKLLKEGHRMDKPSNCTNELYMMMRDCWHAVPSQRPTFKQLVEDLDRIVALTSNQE
T1 sequence (P11362 22-822): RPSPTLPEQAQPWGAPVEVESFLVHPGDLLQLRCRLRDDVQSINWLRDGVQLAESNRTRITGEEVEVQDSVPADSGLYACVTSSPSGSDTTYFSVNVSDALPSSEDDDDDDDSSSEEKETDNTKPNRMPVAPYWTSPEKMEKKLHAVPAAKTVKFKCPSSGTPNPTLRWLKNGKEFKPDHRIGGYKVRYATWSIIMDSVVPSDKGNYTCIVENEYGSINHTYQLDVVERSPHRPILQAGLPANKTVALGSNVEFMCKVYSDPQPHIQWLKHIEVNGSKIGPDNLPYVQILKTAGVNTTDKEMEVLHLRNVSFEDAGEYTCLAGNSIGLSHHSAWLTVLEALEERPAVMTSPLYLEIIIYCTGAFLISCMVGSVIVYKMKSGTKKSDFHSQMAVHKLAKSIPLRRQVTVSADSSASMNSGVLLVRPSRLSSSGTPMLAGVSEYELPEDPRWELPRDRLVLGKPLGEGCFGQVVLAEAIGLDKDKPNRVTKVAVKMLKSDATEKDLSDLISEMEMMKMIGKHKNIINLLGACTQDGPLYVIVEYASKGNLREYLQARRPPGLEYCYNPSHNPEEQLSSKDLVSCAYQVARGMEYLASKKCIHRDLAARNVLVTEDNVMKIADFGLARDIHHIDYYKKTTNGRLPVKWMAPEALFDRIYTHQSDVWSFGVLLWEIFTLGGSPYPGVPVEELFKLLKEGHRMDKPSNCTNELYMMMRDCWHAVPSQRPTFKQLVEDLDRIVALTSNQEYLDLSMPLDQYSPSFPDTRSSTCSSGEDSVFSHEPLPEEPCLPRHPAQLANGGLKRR
FGFR1 kinase, sequence (P11362 22-822): as above

For the molecule `Cc1cc(CN(C)c2nccc(Nc3cc(C)[nH]n3)n2)on1` [Example 2, N-methyl-N-[(3-methylisoxazol-5-yl)methyl]-N′-(5-methyl-2H-pyrazol-3-yl)pyrimidine-2,4-diamine], the IC50 in test [1] (setting [7]) is under 1000 nM; in test [2] (setting [8]), 100 to 1000 nM.
As to `Cc1cc(Nc2ccnc(NCc3cc(C(N)=O)no3)n2)[nH]n1` [Example 4, 5-[[[4-[(5-methyl-2H-pyrazol-3-yl)amino]pyrimidin-2-yl]amino]methyl]isoxazole-3-carboxamide], the results for the IC50 in test [1], in test [2] (Activity class) and in test [3] were under 10000 nM, 100 to 1000 nM and over 10000 nM, respectively.
As to `CCCc1cc(Nc2ccnc(NCc3cc(C)no3)n2)n[nH]1` [Example 6, N-[(3-methylisoxazol-5-yl)methyl]-N ′-(5-propyl-2H-pyrazol-3-yl)pyrimidine-2,4-diamine], the IC50 is under 200 nM in test [1] (setting [7]), under 100 nM in test [2] (setting [8]) and 100 to 1000 nM in test [3].
Turning to `CCCc1cc(Nc2ccnc(NCc3cc(C4CC4)no3)n2)n[nH]1` [Example 7, N-[(3-cyclopropyl-1,2-oxazol-5-yl)methyl]-N′-(5-propyl-2H-pyrazol-3-yl)pyrimidine-2,4-diamine], the IC50 in test [1] (setting [7]) is under 200 nM; in test [2] (setting [8]), under 100 nM.
Turning to `CCCc1cc(Nc2ccnc(NCc3cc(C(N)=O)no3)n2)n[nH]1` [Example 8, 5-[[[4-[(5-propyl-1H-pyrazol-3-yl)amino]pyrimidin-2-yl]amino]methyl]-1,2-oxazole-3-carboxamide], the IC50 was under 1000 nM in test [1] (setting [7]) and under 100 nM in test [2] (setting [8]).
With `c1cc(Nc2cc(C3CC3)[nH]n2)nc(NCc2cc(C3CC3)no2)n1` [Example 10, N-[(3-cyclopropyl-1,2-oxazol-5-yl)methyl]-N′-(5-cyclopropyl-2H-pyrazol-3-yl)pyrimidine-2,4-diamine], the figures for the IC50 in test [1] (setting [7]), in test [2] (setting [8]) and in test [3] were under 200 nM, under 100 nM and 100 to 1000 nM, respectively.
On the same counts, the results for `NC(=O)c1cc(CNc2nccc(Nc3cc(C4CC4)n[nH]3)n2)on1` [Example 11, 5-[[[4-[(5-cyclopropyl-2H-pyrazol-3-yl)amino]pyrimidin-2-yl]amino]methyl]-1,2-oxazole-3-carboxamide] are under 1000 nM, under 100 nM and 1000 to 10000 nM.
Turning to `CCOCCCc1cc(Nc2ccnc(NCc3cc(C)no3)n2)n[nH]1` [Example 20, N′-[5-(3-ethoxypropyl)-2H-pyrazol-3-yl]-N-[(3-methyl-1,2-oxazol-5-yl)methyl]pyrimidine-2,4-diamine], the IC50 in test [1] (setting [7]) is under 10000 nM; in test [2] (setting [8]), 100 to 1000 nM.
Taken in the same sequence, the figures for `CCOCCCc1cc(Nc2ccnc(NCc3cc(C4CC4)no3)n2)[nH]n1` [Example 21, N-[(3-cyclopropyl-1,2-oxazol-5-yl)methyl]-N′-[5-(3-ethoxypropyl)-2H-pyrazol-3-yl]pyrimidine-2,4-diamine] were under 1000 nM and under 100 nM.
On the same counts, the results for `CCOCCCc1cc(Nc2ccnc(NCc3cc(C(N)=O)no3)n2)[nH]n1` [Example 22, 5-[[[4-[[5-(3-ethoxypropyl)-2H-pyrazol-3-yl]amino]pyrimidin-2-yl]amino]methyl]-1,2-oxazole-3-carboxamide] are under 30000 nM and 100 to 1000 nM.
Take `COc1ccc(CCc2cc(Nc3ccnc(NCc4cc(C5CC5)no4)n3)n[nH]2)cc1` [Example 25, N-[(3-cyclopropyl-1,2-oxazol-5-yl)methyl]-N′-[5-[2-(4-methoxyphenyl)ethyl]-2H-pyrazol-3-yl]pyrimidine-2,4-diamine]: the IC50 is under 200 nM in test [1] (setting [7]), 100 to 1000 nM in test [2] (setting [8]) and under 1000 nM in test [4].
Consider `COc1ccc(CCc2cc(Nc3ccnc(NCc4cc(C(N)=O)no4)n3)[nH]n2)cc1` [Example 26, 5-[[[4-[[5-[2-(4-methoxyphenyl)ethyl]-2H-pyrazol-3-yl]amino]pyrimidin-2-yl]amino]methyl]-1,2-oxazole-3-carboxamide], for which the IC50 in test [1] (setting [7]) is under 10000 nM; in test [2] (setting [8]) it was 100 to 1000 nM; in test [4], under 1000 nM.
For the molecule `Cc1cccc(CCc2cc(Nc3ccnc(NCc4cc(C)no4)n3)n[nH]2)c1` [Example 52, N-[(3-methyl1,2-oxazol-5-yl)methyl]-N′-[5-[2-(3-methylphenyl)ethyl]-1H-pyrazol-3-yl]pyrimidine-2,4-diamine hydrochloride], the IC50 in test [1] (setting [7]) is under 1000 nM; in test [4], under 200 nM; in test [5] it was under 200 nM; in test [3], over 10000 nM; in test [6] it was under 1000 nM.
Consider `Cc1cc(CNc2nc(C)cc(Nc3cc(OC(C)C)[nH]n3)n2)on1` [Example 68, 6-methyl-N-[(3-methyl-1,2-oxazol-5-yl)methyl]-N′-(5-propan-2-yloxy-1H-pyrazol-3-yl)pyrimidine-2,4-diamine], for which the IC50 in test [1] (setting [7]) was under 200 nM; in test [2] (setting [8]), under 100 nM; in test [4] it was under 200 nM; in test [3], over 10000 nM.
Consider `Cc1cc(Nc2cc(OC(C)C)[nH]n2)nc(NCc2cc(C3CC3)no2)n1` [Example 69, N-[(3-cyclopropyl-1,2-oxazol-5-yl)methyl]-6-methyl-N′-(5-propan-2-yloxy-2H-pyrazol-3-yl)pyrimidine-2,4-diamine], for which the IC50 in test [1] (setting [7]) was under 200 nM; in test [2] (setting [8]), under 100 nM; in test [4] it was under 200 nM.
Take `COc1cc(Nc2cc(OC(C)C)n[nH]2)nc(NCc2cc(C)no2)n1` [Example 70, 6-methoxy-N-[(3-methyl-1,2-oxazol-5-yl)methyl]-N′-(5-propan-2-yloxy-2H-pyrazol-3-yl)pyrimidine-2,4-diamine]: the IC50 was under 200 nM in test [1] (setting [7]), under 100 nM in test [2] (setting [8]), under 200 nM in test [4] and over 10000 nM in test [3].
For `COc1cc(Nc2cc(OC(C)C)[nH]n2)nc(NCc2cc(C3CC3)no2)n1` [Example 71, N-[(3-cyclopropyl-1,2-oxazol-5-yl)methyl]-6-methoxy-N′-(5-propan-2-yloxy-2H-pyrazol-3-yl)pyrimidine-2,4-diamine], the IC50 was under 200 nM in test [1] (setting [7]), under 100 nM in test [2] (setting [8]) and under 200 nM in test [4].
As to `Cc1cc(CNc2nccc(Nc3cc(OCc4ccccc4)[nH]n3)n2)on1` [Example 72, N-[(3-methyl-1,2-oxazol-5-yl)methyl]-N′-(5-phenylmethoxy-1H-pyrazol-3-yl)pyrimidine-2,4-diamine], the IC50 in test [2] (setting [8]) was 100 to 1000 nM; in test [5] (upper bound of bin), under 1000 nM.
In the case of `CNC(=O)c1cccc(COc2cc(Nc3ccnc(NCc4cc(C)no4)n3)n[nH]2)c1` [Example 91, N-methyl-3-[[5-[[2-[(3-methyl1,2-oxazol-5-yl)methylamino]pyrimidin-4-yl]amino]-1H-pyrazol-3-yl]oxymethyl]benzamide], the IC50 in test [1] (setting [7]) is under 1000 nM; in test [4], under 200 nM; in test [5], under 200 nM; in test [3], over 10000 nM; in test [6], under 1000 nM.
In the case of `Cc1cc(CNc2nccc(Nc3cc(OCc4cccc(Cl)c4)[nH]n3)n2)on1` [Example 93, N′-[5-[(3-chlorophenyl)methoxy]-1H-pyrazol-3-yl]-N-[(3-methyl1,2-oxazol-5-yl)methyl]pyrimidine-2,4-diamine hydrochloride], the IC50 in test [1] (setting [7]) was under 1000 nM; in test [4], under 1000 nM; in test [5] it was under 200 nM; in test [3] it was over 10000 nM; in test [6], under 1000 nM.
`Cc1cc(CNc2nccc(Nc3cc(OCc4cccc(F)c4)[nH]n3)n2)on1` [Example 94, N′-[5-[(3-fluorophenyl)methoxy]-1H-pyrazol-3-yl]-N-[(3-methyl1,2-oxazol-5-yl)methyl]pyrimidine-2,4-diamine hydrochloride]: the IC50 in test [1] (setting [7]) is under 200 nM; in test [4], under 1000 nM; in test [5], under 200 nM; in test [3], over 10000 nM; in test [6] it was under 1000 nM.
For `c1coc(CCc2cc(Nc3ccnc(NCc4cc(C5CC5)no4)n3)n[nH]2)c1` [Example 111, N-[(3-cyclopropyl1,2-oxazol-5-yl)methyl]-N′-[5-[2-(2-furyl)ethyl]-2H-pyrazol-3-yl]pyrimidine-2,4-diamine], the IC50 in test [1] (setting [7]) is under 200 nM; in test [4], under 200 nM; in test [5] it was under 200 nM; in test [3], 1000 to 10000 nM; in test [6], under 1000 nM.
